Reference: US9708314B2, “Heterocyclic amide compound” (NISSAN CHEMICAL INDUSTRIES, LTD., priority 2013, dated 2017)

Key:
Type in all cases: in vivo
[1] = system: Cyperus difformis; assay: Test Example 3: herbicidal effect by application to foliage (Wagner pot, water depth 0.1-0.5 cm); conditions: Nineteenth Table, application herbicide amount 320 g/ha; for E (herbicidal effect grade): application to foliage
Outline: (§1)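 Seeds were sown in alluvial soil in Wagner pots, grown for 14 days at 25–30 °C, then sprayed uniformly on foliage with the emulsified compound diluted to a given rate per hectare. Injury was graded three weeks after treatment from 0 (≤5%) to 5 (≥90%).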

[2] = system: Echinochloa crus-galli var. crus-galli; assay: as above; conditions: Nineteenth Table, application herbicide amount 320 g/ha; for H (herbicidal effect grade): application to foliage
Outline: as §1

[3] = system: Leptochloa chinensis; assay: as above; conditions: Nineteenth Table, application herbicide amount 320 g/ha; for D (herbicidal effect grade): application to foliage
Outline: as §1

[4] = system: Abutilon theophrasti; assay: Test Example 4: herbicidal effect by application to foliage (diluvial soil, plastic box); conditions: for M: Application herbicide amount 320 g/ha; for M (Abutilon theophrasti) herbicidal effect: application to foliage, application herbicide amount 320 g/ha
Outline: (§2)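 Read-out is a 0–5 visual grade of herbicidal ratio (5: ≥90%, almost withered; 0: ≤5%) taken three weeks after treatment. Compound was applied as a diluted emulsion to stem and leaf parts of 14-day greenhouse-grown plants (25° C. to 30° C.) at rates expressed as g/ha.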

[5] = system: Alopecurus myosuroides; assay: as above; conditions: for J: Application herbicide amount 320 g/ha; for J (Alopecurus myosuroides) herbicidal effect: application to foliage, application herbicide amount 320 g/ha
Outline: as §2

[6] = system: Apera spica-venti.; assay: as above; conditions: for L: Application herbicide amount 320 g/ha; for L (Apera spica-venti.) herbicidal effect: application to foliage, application herbicide amount 320 g/ha
Outline: as §2

[7] = system: Avena fatua; assay: as above; conditions: for I: Application herbicide amount 320 g/ha; for I (Avena fatua) herbicidal effect: application to foliage, application herbicide amount 320 g/ha
Outline: as §2

[8] = system: Chenopodium album; assay: as above; conditions: for O: Application herbicide amount 320 g/ha; for O (Chenopodium album) herbicidal effect: application to foliage, application herbicide amount 320 g/ha
Outline: as §2

[9] = system: Digitaria ciliaris; assay: as above; conditions: for F: Application herbicide amount 320 g/ha; for F (Digitaria ciliaris) herbicidal effect: application to foliage, application herbicide amount 320 g/ha
Outline: as §2

[10] = system: Echinochloa crus-galli var. crus-galli; assay: as above; conditions: for H: Application herbicide amount 320 g/ha; for H (Echinochloa crus-galli var. crus-galli) herbicidal effect: application to foliage, application herbicide amount 320 g/ha
Outline: as §2

[11] = system: Galium spurium; assay: as above; conditions: for Q: Application herbicide amount 320 g/ha; for Q (Galium spurium) herbicidal effect: application to foliage, application herbicide amount 320 g/ha
Outline: as §2

[12] = system: Lolium multiflorum Lam.; assay: as above; conditions: for K: Application herbicide amount 320 g/ha; for K (Lolium multiflorum Lam.) herbicidal effect: application to foliage, application herbicide amount 320 g/ha
Outline: as §2

[13] = system: Setaria viridis; assay: as above; conditions: for G: Application herbicide amount 320 g/ha; for G (Setaria viridis) herbicidal effect: application to foliage, application herbicide amount 320 g/ha
Outline: as §2

[14] = system: Veronica persica; assay: as above; conditions: for R: Application herbicide amount 320 g/ha; for R (Veronica persica) herbicidal effect: application to foliage, application herbicide amount 320 g/ha
Outline: as §2

Row | Compound | E (herbicidal effect grade) [1] | H (herbicidal effect grade) [2] | D (herbicidal effect grade) [3] | M [4] | J [5] | L [6] | E (Cyperus difformis) herbicidal ratio grade [1] | H (Echinochloa crus-galli var. crus-galli) herbicidal ratio grade [2] | D (Leptochloa chinensis) herbicidal ratio grade [3] | M (Abutilon theophrasti) herbicidal effect [4] | J (Alopecurus myosuroides) herbicidal effect [5] | L (Apera spica-venti.) herbicidal effect [6] | I (Avena fatua) herbicidal effect [7] | O (Chenopodium album) herbicidal effect [8] | F (Digitaria ciliaris) herbicidal effect [9] | H (Echinochloa crus-galli var. crus-galli) herbicidal effect [10] | Q (Galium spurium) herbicidal effect [11] | K (Lolium multiflorum Lam.) herbicidal effect [12] | G (Setaria viridis) herbicidal effect [13] | R (Veronica persica) herbicidal effect [14] | other results
1 | CC(C)Sc1nnc2c(C(=O)Nc3nnco3)ccc(C(F)(F)F)n12 [1-091] | 5 (Herbicidal ratio of 90% or more (almost completely withered)) | 5 (Herbicidal ratio of 90% or more (almost completely withered)) | 5 (Herbicidal ratio of 90% or more (almost completely withered)) | 5 (Herbicidal ratio of 90% or more (almost completely withered)) | 2 (Herbicidal ratio of 20% or more and less than 40%) | 3 (Herbicidal ratio of 40% or more and less than 70%) | – | – | – | – | – | – | – | – | – | – | – | – | – | – | I [7]: 4 (Herbicidal ratio of 70% or more and less than 90%); O [8]: 5 (Herbicidal ratio of 90% or more (almost completely withered)); F [9]: 5 (Herbicidal ratio of 90% or more (almost completely withered)); H [10]: 5 (Herbicidal ratio of 90% or more (almost completely withered)); Q [11]: 4 (Herbicidal ratio of 70% or more and less than 90%); K [12]: 3 (Herbicidal ratio of 40% or more and less than 70%); G [13]: 5 (Herbicidal ratio of 90% or more (almost completely withered)); R [14]: 5 (Herbicidal ratio of 90% or more (almost completely withered))
2 | Cc1nnc(NC(=O)c2ccc(C(F)(F)F)n3c(SC(C)C)nnc23)o1 [1-033] | – | – | – | – | – | – | 5 (Herbicidal ratio of 90% or more (almost completely withered)) | 5 (Herbicidal ratio of 90% or more (almost completely withered)) | 5 (Herbicidal ratio of 90% or more (almost completely withered)) | 5 (Herbicidal ratio of 90% or more (almost completely withered)) | 1 (Herbicidal ratio of 5% or more and less than 20%) | 2 (Herbicidal ratio of 20% or more and less than 40%) | 2 (Herbicidal ratio of 20% or more and less than 40%) | 5 (Herbicidal ratio of 90% or more (almost completely withered)) | 5 (Herbicidal ratio of 90% or more (almost completely withered)) | 5 (Herbicidal ratio of 90% or more (almost completely withered)) | 3 (Herbicidal ratio of 40% or more and less than 70%) | 1 (Herbicidal ratio of 5% or more and less than 20%) | 5 (Herbicidal ratio of 90% or more (almost completely withered)) | 5 (Herbicidal ratio of 90% or more (almost completely withered)) | –
3 | Cc1nnc(NC(=O)c2ccc(C(F)(F)F)n3c(C4=NOC(C)(C)C4)nnc23)o1 [1-029] | – | – | – | – | – | – | 4 (Herbicidal ratio of 70% or more and less than 90%) | 4 (Herbicidal ratio of 70% or more and less than 90%) | 5 (Herbicidal ratio of 90% or more (almost completely withered)) | 5 (Herbicidal ratio of 90% or more (almost completely withered)) | 1 (Herbicidal ratio of 5% or more and less than 20%) | 1 (Herbicidal ratio of 5% or more and less than 20%) | 1 (Herbicidal ratio of 5% or more and less than 20%) | 5 (Herbicidal ratio of 90% or more (almost completely withered)) | 5 (Herbicidal ratio of 90% or more (almost completely withered)) | 5 (Herbicidal ratio of 90% or more (almost completely withered)) | 0 (Herbicidal ratio of 5% or less (almost no effect)) | 1 (Herbicidal ratio of 5% or more and less than 20%) | 4 (Herbicidal ratio of 70% or more and less than 90%) | 5 (Herbicidal ratio of 90% or more (almost completely withered)) | –
4 | Cc1nnc(NC(=O)c2ccc(C(F)(F)F)n3c(COCC(F)(F)F)nnc23)o1 [1-020] | – | – | – | – | – | – | 4 (Herbicidal ratio of 70% or more and less than 90%) | 5 (Herbicidal ratio of 90% or more (almost completely withered)) | 4 (Herbicidal ratio of 70% or more and less than 90%) | 2 (Herbicidal ratio of 20% or more and less than 40%) | 1 (Herbicidal ratio of 5% or more and less than 20%) | 1 (Herbicidal ratio of 5% or more and less than 20%) | 1 (Herbicidal ratio of 5% or more and less than 20%) | 5 (Herbicidal ratio of 90% or more (almost completely withered)) | 4 (Herbicidal ratio of 70% or more and less than 90%) | 5 (Herbicidal ratio of 90% or more (almost completely withered)) | 3 (Herbicidal ratio of 40% or more and less than 70%) | 1 (Herbicidal ratio of 5% or more and less than 20%) | 3 (Herbicidal ratio of 40% or more and less than 70%) | 3 (Herbicidal ratio of 40% or more and less than 70%) | –
5 | Cc1nnc(NC(=O)c2ccc(C(F)F)n3c(C(C)C)nnc23)o1 [1-053] | – | – | – | – | – | – | 4 (Herbicidal ratio of 70% or more and less than 90%) | 4 (Herbicidal ratio of 70% or more and less than 90%) | 4 (Herbicidal ratio of 70% or more and less than 90%) | 4 (Herbicidal ratio of 70% or more and less than 90%) | 0 (Herbicidal ratio of 5% or less (almost no effect)) | 0 (Herbicidal ratio of 5% or less (almost no effect)) | 1 (Herbicidal ratio of 5% or more and less than 20%) | 5 (Herbicidal ratio of 90% or more (almost completely withered)) | 3 (Herbicidal ratio of 40% or more and less than 70%) | 3 (Herbicidal ratio of 40% or more and less than 70%) | 2 (Herbicidal ratio of 20% or more and less than 40%) | 0 (Herbicidal ratio of 5% or less (almost no effect)) | 2 (Herbicidal ratio of 20% or more and less than 40%) | 4 (Herbicidal ratio of 70% or more and less than 90%) | –
6 | Cc1nnc(NC(=O)c2ccc(C(F)(F)F)n3c(SCC(C)C)nnc23)o1 [1-093] | 4 (Herbicidal ratio of 70% or more and less than 90%) | 4 (Herbicidal ratio of 70% or more and less than 90%) | 5 (Herbicidal ratio of 90% or more (almost completely withered)) | 4 (Herbicidal ratio of 70% or more and less than 90%) | 0 (Herbicidal ratio of 5% or less (almost no effect)) | 1 (Herbicidal ratio of 5% or more and less than 20%) | – | – | – | – | – | – | – | – | – | – | – | – | – | – | I [7]: 1 (Herbicidal ratio of 5% or more and less than 20%); O [8]: 5 (Herbicidal ratio of 90% or more (almost completely withered)); F [9]: 5 (Herbicidal ratio of 90% or more (almost completely withered)); H [10]: 5 (Herbicidal ratio of 90% or more (almost completely withered)); Q [11]: 1 (Herbicidal ratio of 5% or more and less than 20%); K [12]: 1 (Herbicidal ratio of 5% or more and less than 20%); G [13]: 3 (Herbicidal ratio of 40% or more and less than 70%); R [14]: 4 (Herbicidal ratio of 70% or more and less than 90%)
